For data set [1], the system named is HSV-1 (Miyama strain). Nature of the data set: In vitro antiviral activity against HSV-1 (CPE inhibition, virus titer reduction) in GMK cells. The note with it: read-out: Antiviral Activity (ΔTCID50 (log10)). The data set is classed as cell-based. As to the method: The virus titer (TCID₅₀) was determined from CPE of virus infected culture. Antiviral effects of the test compounds were calculated from TCID₅₀ values of the test compounds treated and control cultures and represented by ΔTCID₅₀ (log₁₀).
In this regard, it is noted that prior to be added to the incubation systems, the compounds were dissolved in MEM or ethanol media at 10 mg/ml concentrations, and diluted with MEM media supplemented with 1% fetal bovine serum.

In the next data set the test system is GMK cells. Nature of the data set: Cytotoxicity, microscopically observed in GMK cell cultures. The data set is classed as cell-based, green monkey.
Data set [2] concerns HSV-1 (Miyama strain). Put plainly: In vivo anti-HSV-1 activities in intraperitoneally infected mice (Testing 4). The note with it: mice infected with 322 PFU HSV-1; for Survival Ratios after 21 days (%): control 0; for Mean Survival Days: control 6.9. Further details: species or system BALB/c mice.
Data set [3] deals with HSV-1 (Miyama strain). Nature of the data set: In vivo anti-HSV-1 activities in intraperitoneally infected mice (Testing 5). Also on record: species or system BALB/c mice. The settings on record: mice infected with 322 PFU HSV-1; for Survival Ratios after 21 days (%): control 0; for Mean Survival Days: control 6.9, *: P<0.05 (U Test).
The mark [4] stands for this setting: Human alphaherpesvirus 1, 10 μg/ml, HSV-1 (Miyama strain), GMK cells.
Where [5] appears, read: Human alphaherpesvirus 1, 50 μg/ml, HSV-1 (Miyama strain), GMK cells.
Where [6] appears, read: 5 mg/kg intraperitoneally for five days.
The mark [7] stands for this setting: 20 mg/kg intraperitoneally for five days.
[8] abbreviates: 10 mg/kg intraperitoneally for five days.
The mark [9] stands for this setting: 40 mg/kg intraperitoneally for five days.

Like-named read-outs stand apart in the source and are kept apart here. Marks after values point to notes of the source that are not given here. Bounds are passed on as bounds.

With `Clc1cccc(N2CCNCC2)c1` [Compound 2, 1-(m-chlorophenyl)piperazine hydrochlorate], in the data set with HSV-1 (Miyama strain) [1] (Human alphaherpesvirus 1, GMK), the log reduction at 10 µg/mL worked out at 0.46 and the log reduction at 50 µg/mL is 1.23. Further, the cytotoxicities result in the data set on GMK cells (100 μg/ml) was “(±±)”.

With `Clc1ccc(N2CCNCC2)cc1` [Compound 3, 1-(p-chlorophenyl)piperazine hydrochlorate], in the data set with HSV-1 (Miyama strain) [1] (Human alphaherpesvirus 1, GMK), the log reduction at 10 µg/mL came to 0 and the log reduction at 50 µg/mL turned out to be 1.5. The cytotoxicities result with GMK cells (100 μg/ml) was “(±±)”.

Consider `COc1ccccc1N1CCNCC1` [Compound 4, 1-(o-methoxyphenyl)piperazine hydrochlorate], for which, in the data set with HSV-1 (Miyama strain) [1] (Human alphaherpesvirus 1, GMK), the log reduction at 10 µg/mL worked out at 0.56, the log reduction at 50 µg/mL was determined as 1.56 and the log reduction at 100 µg/mL stood at 2.5. The cytotoxicities result with GMK cells (100 μg/ml) is on record as “(+)”.

On to `Fc1ccccc1N1CCNCC1` [Compound 5, 1-(o-fluorophenyl)piperazine hydrochlorate], for which, in the data set on HSV-1 (Miyama strain) [1] (Human alphaherpesvirus 1, GMK), the log reduction at 10 µg/mL is 0.33, the log reduction at 50 µg/mL was 1.33 and the log reduction at 100 µg/mL is 1.56. Besides, the cytotoxicities result in the data set with GMK cells (100 μg/ml) is reported as “(+)”.

As for `Fc1ccc(N2CCNCC2)cc1` [Compound 6, 1-(p-fluorophenyl)piperazine hydrochlorate], in the data set on HSV-1 (Miyama strain) [1] (Human alphaherpesvirus 1, GMK), the log reduction at 10 µg/mL came out at 0, the log reduction at 50 µg/mL was determined as 0.5 and the log reduction at 100 µg/mL was 1.33. Besides, the cytotoxicities entry with GMK cells (100 μg/ml) was “(+)”.

As to `c1ccc(N2CCNCC2)cc1` [Compound 7, 1-phenylpiperazine], the log reduction at 100 µg/mL in the data set on HSV-1 (Miyama strain) [1] (Human alphaherpesvirus 1, GMK) came to 0.83. Besides, the cytotoxicities entry with GMK cells (100 μg/ml) was “(+)”.

For `c1ccc(N2CCCCC2)cc1` [Compound 8, 1-phenylpiperidine], the log reduction at 100 µg/mL with HSV-1 (Miyama strain) [1] (Human alphaherpesvirus 1, GMK) was 0.5. Moreover, in the data set with GMK cells (100 μg/ml), the cytotoxicities result was “(+)”.

As for `COc1ccccc1N1CCN(CCN)CC1` [Compound 9, 4-(aminoethyl)-1-(o-methoxyphenyl)piperazine], in the data set on HSV-1 (Miyama strain) [1] (setting [4]), the log reduction at 10 µg/mL amounted to 0.87. Also, in the data set with HSV-1 (Miyama strain) [1] (setting [5]), the log reduction at 50 µg/mL is 1.8. Moreover, the log reduction at 100 µg/mL in the data set on HSV-1 (Miyama strain) [1] (Human alphaherpesvirus 1, 100 μg/ml, HSV-1 (Miyama strain), GMK cells) was 2.53. In the data set on HSV-1 (Miyama strain) [2] (setting [6]), the “Survival Ratios after 21 days (%)” value was determined as 70% and the “Mean Survival Days” value is on record as 17.5* Days. Also, in the data set with HSV-1 (Miyama strain) [2] (setting [7]), the “Survival Ratios after 21 days (%)” value came out at 50% and the “Mean Survival Days” value is reported as 10.9* Days.

`CC[C@]12CCCN3CCc4c(n(c5ccccc45)C(=NOCC(O)CN4CCN(c5ccccc5OC)CC4)C1)[C@@H]32` (stereo partly drawn) [Compound 10]: the log reduction at 10 µg/mL in the data set with HSV-1 (Miyama strain) [1] (setting [4]) was greater than 3. Moreover, the log reduction at 50 µg/mL in the data set with HSV-1 (Miyama strain) [1] (setting [5]) was greater than 2.17. Besides, the cytotoxicities result with GMK cells (50 μg/ml) is recorded as “(±)”. Also, the “Survival Ratios after 21 days (%)” value in the data set on HSV-1 (Miyama strain) [3] (setting [6]) was 50%; in the data set with HSV-1 (Miyama strain) [3] (setting [8]), 60%; in the data set on HSV-1 (Miyama strain) [3] (setting [7]) it was 50%; in the data set with HSV-1 (Miyama strain) [3] (setting [9]), 50%. For the same compound, the “Mean Survival Days” value is 15.4* Days with HSV-1 (Miyama strain) [3] (setting [6]), 15.4* Days in the data set on HSV-1 (Miyama strain) [3] (setting [8]), 16.4* Days in the data set with HSV-1 (Miyama strain) [3] (setting [7]) and 15.5* Days with HSV-1 (Miyama strain) [3] (setting [9]).

As for `FC(F)(F)c1ccccc1N1CCNCC1` [Compound 11], in the data set with HSV-1 (Miyama strain) [1] (Human alphaherpesvirus 1, GMK), the log reduction at 10 µg/mL stood at 2, the log reduction at 50 µg/mL is greater than 4 and the log reduction at 100 µg/mL is less than 4. For the same compound, the cytotoxicities result with GMK cells (100 μg/ml) is reported as “(±)”.

`Clc1cccc(Cl)c1N1CCNCC1` [Compound 12]: in the data set with HSV-1 (Miyama strain) [1] (Human alphaherpesvirus 1, GMK), the log reduction at 10 µg/mL worked out at 1, the log reduction at 50 µg/mL turned out to be 2.67 and the log reduction at 100 µg/mL is greater than 3.3. Besides, the cytotoxicities result in the data set on GMK cells (100 μg/ml) is reported as “(±)”.

Source of the values: EP0539180A1, “Antiviral agents” (SANWA KAGAKU KENKYUSHO CO., LTD., priority 1991, dated 1993).
